The subject of one assay is MV4-11. Briefly: cells. The settings on record: Homo sapiens, MV4-11, 72 h.
A further assay deals with MOLM-13. The assay can be described thus: cells. The settings on record: Homo sapiens, MOLM-13, 72 h.
The test system of the next assay is RS4-11. The assay can be described thus: Antiproliferative activity against human RS4:11 cells harboring wild-type FLT3 measured after 72 hrs by MTT assay. Format: functional, cell-based. The settings on record: RS4-11, 72 h.
Assay [1] has as its system BaF3. The assay can be described thus: cells. The settings on record: Mus musculus, BaF3, 72 h.
Description: Antiproliferative activity against mouse BAF3 cells harboring FLT3-ITD-D835V mutant measured after 72 hrs by MTT assay
In assay [2] the test system is BaF3. The assay can be described thus: cells. As to conditions: Mus musculus, BaF3, 72 h. The source holds these as a separate data set.
Description: Antiproliferative activity against mouse BAF3 cells harboring FLT3-ITD mutant measured after 72 hrs by MTT assay
The target of assay [3] is T1, Receptor-type tyrosine-protein kinase FLT3 (Homo sapiens, UniProt P36888).
T1 sequence (P36888 whole entry): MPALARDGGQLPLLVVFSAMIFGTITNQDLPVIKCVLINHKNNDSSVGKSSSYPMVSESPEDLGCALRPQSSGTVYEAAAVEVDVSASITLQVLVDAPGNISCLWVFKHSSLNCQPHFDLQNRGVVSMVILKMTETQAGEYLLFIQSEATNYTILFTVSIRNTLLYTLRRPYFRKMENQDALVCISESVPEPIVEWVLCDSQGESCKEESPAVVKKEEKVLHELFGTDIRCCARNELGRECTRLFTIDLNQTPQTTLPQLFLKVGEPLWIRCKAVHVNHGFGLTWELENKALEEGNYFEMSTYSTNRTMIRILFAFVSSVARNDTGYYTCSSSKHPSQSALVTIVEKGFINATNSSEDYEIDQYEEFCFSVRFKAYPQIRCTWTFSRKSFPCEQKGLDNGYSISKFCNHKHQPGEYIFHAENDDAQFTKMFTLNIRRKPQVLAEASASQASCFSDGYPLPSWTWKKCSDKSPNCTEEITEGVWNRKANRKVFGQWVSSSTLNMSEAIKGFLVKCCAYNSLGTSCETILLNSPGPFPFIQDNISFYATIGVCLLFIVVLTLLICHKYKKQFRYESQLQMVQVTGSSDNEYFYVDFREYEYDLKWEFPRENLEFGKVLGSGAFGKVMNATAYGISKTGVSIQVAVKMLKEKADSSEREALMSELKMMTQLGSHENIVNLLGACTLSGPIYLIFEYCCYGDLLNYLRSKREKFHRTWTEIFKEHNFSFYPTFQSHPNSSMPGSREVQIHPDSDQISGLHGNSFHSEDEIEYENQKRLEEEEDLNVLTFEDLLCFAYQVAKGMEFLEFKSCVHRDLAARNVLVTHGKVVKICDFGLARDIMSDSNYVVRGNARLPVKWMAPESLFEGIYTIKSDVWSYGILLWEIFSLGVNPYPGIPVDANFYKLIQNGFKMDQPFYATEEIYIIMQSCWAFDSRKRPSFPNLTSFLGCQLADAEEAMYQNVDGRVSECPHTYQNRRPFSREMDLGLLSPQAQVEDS

The next assay relates to HL-60. The assay can be described thus: Antiproliferative activity against human HL60 cells harboring wild-type FLT3 measured after 72 hrs by MTT assay. Format: functional, cell-based. The settings on record: HL-60, 72 h.
Assay [4] relates to BaF3. The assay can be described thus: cells. As to conditions: Mus musculus, BaF3, 72 h. This is another data set of the same source.
Description: Antiproliferative activity against mouse BAF3 cells harboring FLT3-ITD-F691L mutant measured after 72 hrs by MTT assay

The structures appear in SMILES notation.

Description for MOLM-13: Antiproliferative activity against human MOLM13 cells harboring FLT3-ITD mutant measured after 72 hrs by MTT assay
Description for MV4-11: Antiproliferative activity against human MV4-11 cells harboring FLT3-ITD mutant measured after 72 hrs by MTT assay

Consider `C=CCCCCn1cc(-c2ccc(NC(=O)Nc3cc(C(C)(C)C)on3)cc2)c2c(N)ncnc21`, for which the IC50 was 1.79 nM in the assay on MV4-11; 2.85 nM with MOLM-13; over 1000 nM in the assay on RS4-11; 185 nM in the assay on BaF3 [1]; 6.06 nM in the assay with BaF3 [2]; 70 nM in assay [3]. Besides, the results for the IC50 in the assay on HL-60 and in the assay on BaF3 [4] were over 1000 nM and 228 nM, respectively.
Consider `CCN(CC)C(=O)n1cc(-c2ccc(NC(=O)Nc3cc(C(C)(C)C)on3)cc2)c2c(N)ncnc21`, for which the IC50 in the assay with MV4-11 was 1.73 nM; in the assay on MOLM-13, 1.95 nM; in the assay on RS4-11, over 1000 nM; in the assay with BaF3 [1], 28.5 nM; with BaF3 [2], 3.1 nM; in assay [3], 31 nM. Also, the IC50 was over 1000 nM in the assay on HL-60 and 28.2 nM with BaF3 [4].
For `CC(C)(C)c1cc(NC(=O)Nc2ccc(-c3cn(CCC#N)c4ncnc(N)c34)cc2F)no1`, the IC50 in the assay with MV4-11 is 2.21 nM; with MOLM-13, 2.33 nM; in the assay with RS4-11, over 1000 nM; in the assay with BaF3 [1], 112 nM; with BaF3 [2], 4.26 nM; in assay [3] it was 22 nM. In addition, the IC50 was over 1000 nM with HL-60 and 31.5 nM with BaF3 [4].
Take `CCCCCCn1cc(-c2ccc(NC(=O)Nc3cc(C(C)(C)C)on3)cc2)c2c(N)ncnc21`: the IC50 was 5.13 nM in the assay with MV4-11; 3.77 nM in the assay on MOLM-13; over 1000 nM in the assay on RS4-11; 187 nM in the assay on BaF3 [1]; 20.7 nM with BaF3 [2]; 105 nM in assay [3]. For the same compound, the IC50 in the assay on HL-60 was over 1000 nM; with BaF3 [4], 253 nM.
`CC(C)(C)c1cc(NC(=O)Nc2ccc(-c3cn(C4CCCC4)c4ncnc(N)c34)cc2)no1`: the IC50 is 2.16 nM with MV4-11; 1.51 nM in the assay with MOLM-13; over 1000 nM in the assay with RS4-11; 36.8 nM with BaF3 [1]; 7.25 nM with BaF3 [2]; 32 nM in assay [3]. In addition, the half-maximal inhibitory concentration (IC50) in the assay with HL-60 is over 1000 nM; in the assay with BaF3 [4], 90.9 nM.
On to `CCCCn1cc(-c2ccc(NC(=O)Nc3cc(C(C)(C)C)on3)cc2)c2c(N)ncnc21`, for which the IC50 in the assay on MV4-11 was 2.18 nM; in the assay on MOLM-13 it was 1.43 nM; in the assay with RS4-11, over 1000 nM; in the assay with BaF3 [1] it was 112 nM; with BaF3 [2] it was 5.69 nM; in assay [3], 34 nM. In addition, the IC50 with HL-60 is over 1000 nM; in the assay with BaF3 [4], 209 nM.
Take `CCC#CCn1cc(-c2ccc(NC(=O)Nc3cc(C(C)(C)C)on3)cc2)c2c(N)ncnc21`: the IC50 in the assay on MV4-11 was 5.84 nM; in the assay on MOLM-13, 2.05 nM; in the assay with RS4-11 it was over 1000 nM; in the assay with BaF3 [1], 361 nM; in the assay on BaF3 [2], 8.65 nM; in assay [3], 64 nM. The IC50 in the assay on HL-60 is over 1000 nM; in the assay with BaF3 [4], 148 nM.
Take `CC#CCn1cc(-c2ccc(NC(=O)Nc3cc(C(C)(C)C)on3)cc2)c2c(N)ncnc21`: the IC50 in the assay on MV4-11 is 3.92 nM; in the assay on MOLM-13, 1.15 nM; with RS4-11, over 1000 nM; in the assay on BaF3 [1] it was 86.4 nM; in the assay on BaF3 [2] it was 6.18 nM; in assay [3] it was 26 nM. The results for the IC50 with HL-60 and with BaF3 [4] were over 1000 nM and 51.2 nM, respectively.
On to `C=C(C)Cn1cc(-c2ccc(NC(=O)Nc3cc(C(C)(C)C)on3)cc2)c2c(N)ncnc21`, for which the IC50 with MV4-11 is 1.75 nM; in the assay with MOLM-13 it was 1.02 nM; with RS4-11, over 1000 nM; in the assay on BaF3 [1], 93.7 nM; with BaF3 [2], 5.09 nM; in assay [3], 30 nM. Besides, the IC50 was over 1000 nM in the assay with HL-60 and 57.8 nM with BaF3 [4].

Source of the values: ChEMBL document CHEMBL4385604, “Identification of Pyrrolo[2,3- d]pyrimidine-Based Derivatives as Potent and Orally Effective Fms-like Tyrosine Receptor Kinase 3 (FLT3) Inhibitors for Treating Acute Myelogenous Leukemia” (J Med Chem, 2019).
